Test results reported in ChEMBL document CHEMBL1121377, “Synthesis and biological activities of chloroethylurea, methylurea, and nitrosourea analogues of N-deacetylmethylthiocolchicine” (1980).

Tests used:
Format in all cases: functional
Human alphaherpesvirus 1 [1] = experiment: Percent inhibition of herpes simplex type-1 virus at the concentration of 1 uM
L1210 = experiment: In vitro inhibitory activity against murine leukemia L1210 cells; details: Mus musculus, read-out: ED50 (the source's name)
[2] = In vitro inhibitory activity against Sarcoma 180 cells; details: Mus musculus, read-out: ED50 (the source's name)
Human alphaherpesvirus 1 [3] = experiment: Percent inhibition of herpes simplex type-1 virus at the concentration of 175 uM
Human alphaherpesvirus 1 [4] = experiment: Percent inhibition of herpes simplex type-1 virus at the concentration of 10 uM
Human alphaherpesvirus 1 [5] = experiment: Percent inhibition of herpes simplex type-1 virus at the concentration of 20 uM
Human alphaherpesvirus 1 [6] = experiment: Percent inhibition of herpes simplex type-1 virus at the concentration of 50 uM

With `COc1cc2c(c(OC)c1OC)-c1ccc(SC)c(=O)cc1C(NC(=O)N(CCCl)N=O)CC2` (centres undefined) the inhibition at 1 µM (Human alphaherpesvirus 1 [1]) was 76%, the EC50 (L1210) was 12 nM and the EC50 [2] was 27 nM.

`CNC(=O)NC1CCc2cc(OC)c(OC)c(OC)c2-c2ccc(SC)c(=O)cc21` (centres undefined) showed an inhibition at 175 µM (Human alphaherpesvirus 1 [3]) of 85%, an EC50 (L1210) of 33 nM and an EC50 [2] of 29 nM.

`COc1cc2c(c(OC)c1OC)-c1ccc(SC)c(=O)cc1C(NC(=O)N(C)N=O)CC2` (centres undefined) showed an inhibition at 10 µM (Human alphaherpesvirus 1 [4]) of 86%, an EC50 (L1210) of 18 nM and an EC50 [2] of 26 nM.

Work on `COc1cc2c(c(OC)c1OC)-c1ccc(SC)c(=O)cc1C(NC(=O)NCCCl)CC2` (centres undefined) yielded an inhibition at 20 µM (Human alphaherpesvirus 1 [5]) of 72%, an EC50 (L1210) of 16 nM and an EC50 [2] of 30 nM.

In the case of `O=NN(CCCl)C(=O)NCCCl` [CARMUSTINE], the EC50 (L1210) is reported as 4000 nM.

In the case of `O=c1[nH]c(=O)n([C@H]2C[C@H](O)[C@@H](CO)O2)cc1I` [IDOXURIDINE], the inhibition at 50 µM (Human alphaherpesvirus 1 [6]) is reported as 99.3%.
